The target in one assay is T1, ER-α in MCF-7 cells (Homo sapiens, UniProt P03372).
T1 construct: endogenous in cells; host or cells: MCF-7
T1 sequence (P03372 1-595): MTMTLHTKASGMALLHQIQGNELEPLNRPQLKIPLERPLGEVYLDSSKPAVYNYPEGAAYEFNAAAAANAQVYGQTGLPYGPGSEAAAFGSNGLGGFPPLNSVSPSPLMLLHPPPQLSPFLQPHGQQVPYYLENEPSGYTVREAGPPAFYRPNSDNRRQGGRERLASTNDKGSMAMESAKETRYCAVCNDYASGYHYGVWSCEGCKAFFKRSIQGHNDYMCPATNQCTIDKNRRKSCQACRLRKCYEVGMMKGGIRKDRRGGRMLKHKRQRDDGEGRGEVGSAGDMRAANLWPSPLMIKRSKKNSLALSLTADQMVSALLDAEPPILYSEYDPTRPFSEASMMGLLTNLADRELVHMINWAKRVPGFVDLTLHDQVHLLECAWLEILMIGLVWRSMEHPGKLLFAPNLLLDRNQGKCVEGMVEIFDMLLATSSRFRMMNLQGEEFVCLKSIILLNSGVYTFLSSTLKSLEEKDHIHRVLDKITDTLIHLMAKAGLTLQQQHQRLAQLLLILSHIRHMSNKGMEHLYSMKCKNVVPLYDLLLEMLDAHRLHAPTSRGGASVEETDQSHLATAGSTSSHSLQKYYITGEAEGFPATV
Kind of assay: Breast Cancer Cell ER-α In Cell Western Assay (SP1). It is filed as cell-based. Conditions: 4 or 24 hr post compound addition; for Emax: MCF7, SP1 antibody, read-out: ER-α In Cell Western Assay (SP1) Max Response; for DC50: SP1 antibody, read-out: ER-α In Cell Western Assay (SP1) IC50. The procedure: MCF-7 cells were adjusted to a concentration of 200,000 cells per mL in RPMI containing 10% charcoal-stripped FBS and 20 mM HEPES. 16 microliters of the cell suspension (3200 cells) was added to each well of a poly-D-lysine 384 well plate, and the cells were incubated overnight to allow the cells to adhere. The following day an eleven point, serial semilog dilution of each compound was added to the cells in 16 μL at a final concentration ranging from 0.3-0.000003 μM. At 4 or 24 hr post compound addition, the cells were fixed (10% formalin in PBS) for 20 minutes. Cells were permeablized in PBS 0.1% Triton and blocked with LICOR blocking buffer (50 μl/well, 90′). The wells were then incubated overnight at 4° C. with SP1 rabbit monoclonal Ab (Thermo Scientific) diluted 1:1000 in LICOR blocking buffer/0.1% Tween-20. Wells which were treated with blocking buffer with Tween but no antibody were used as a background control. Wells were washed with 0.1% Tween-20/PBS and then incubated in goat anti-rabbit IRDye™ 800CW (LICOR Inc.; 1:10000) and DRAQ5 DNA dye (1:2000 for 2 mM stock) diluted in LICOR blocking buffer containing 0.1% Tween-20 and 0.01% SDS for 60 minutes. Cells were washed (50 μl/well, 5′ each) in 0.1% Tween-20/PBS. Plates were scanned on a LICOR Odyssey infrared imaging system. Integrated intensities in the 800 nm channel and 700 nm channel were measured to determine levels of ER and DNA respectively. Percent ER levels were determined as follows: (Integrated intensity 800 nm sample/integrated intensity 700 nm sample)/(Integrated intensity 800 nm untreated cells/integrated intensity 700 nm untreated cells)×100=% ER levels. […]

The subject of a further assay is MCF-7 cells. Kind of assay: Breast Cancer Cell Viability Assays (MCF-7, CellTiter-Glo). It is filed as cell-based. Conditions: 5 days' compound exposure; for IC50: Homo sapiens, MCF7, 120 h. The procedure:
MCF-7 cells were adjusted to a concentration of 20,000 cells per mL in RPMI containing 10% FBS and 20 mM HEPES. 16 microliters of the cell suspension (320 cells) was added to each well of a 384 well plate, and the cells were incubated overnight to allow the cells to adhere. The following day an eleven point, serial semilog dilution of each compound was added to the cells in 16 μL at a final concentration ranging from 0.3-0.000003 μM. After 5 days' compound exposure, 16 μL of CellTiter-GLo (Promega, Madison Wis.) was added to the cells, and the relative luminescence units (RLUs) of each well were determined. CellTiter-Glo added to 32 μL of medium without cells was used to obtain a background value. The Percent viability of each sample was determined as follows: (RLU sample−RLU background/RLU untreated cells−RLU background)×100=% viability. […]

These results are taken from US9499538B2, “Estrogen receptor modulators and uses thereof” (Seragon Pharmaceuticals, Inc., priority 2012, dated 2016).

Molecules are shown by their SMILES.

As to `N#Cc1c(/C(=C(/c2ccccc2)C2CCC2)c2ccc(/C=C/C(=O)O)cc2)ccc2[nH]ncc12` [Example 1, (E)-3-(4-((E)-1-(4-Cyano-1H-indazol-5-yl)-2-cyclobutyl-2-phenylvinyl)phenyl)acrylic acid], on ER-α in MCF-7 cells, the Emax was ≥ 40% and the DC50 is ≤ 100 nM. Also, in the assay on MCF-7 cells, the “MCF7 Viability Assay Max Response” value was “++ (++ = a single % value ≧ 40%)” and the 50% inhibitory concentration (IC50) was ≤ 100 nM.

As for `O=C(O)/C=C/c1ccc(/C(=C(\c2ccccc2)C2CCC2)c2ccc3[nH]ncc3c2Cl)cc1` [Example 2, (E)-3-(4-((E)-1-(4-Chloro-1H-indazol-5-yl)-2-cyclobutyl-2-phenylvinyl)phenyl)acrylic acid], at ER-α in MCF-7 cells, the Emax was ≥ 40% and the DC50 is ≤ 100 nM. In addition, in the assay on MCF-7 cells, the “MCF7 Viability Assay Max Response” value is “++ (++ = a single % value ≧ 40%)” and the IC50 was ≤ 100 nM.

Regarding `CC/C(=C(/c1ccc(/C=C/C(=O)O)cc1)c1ccc2[nH]ncc2c1C#N)c1ccccc1` [Example 3, (E)-3-(4-((E)-1-(4-Cyano-1H-indazol-5-yl)-2-phenylbut-1-en-1-yl)phenyl)acrylic acid], at ER-α in MCF-7 cells, the Emax was ≥ 40% and the DC50 is ≤ 100 nM. Besides, in the assay on MCF-7 cells, the “MCF7 Viability Assay Max Response” value is “++ (++ = a single % value ≧ 40%)” and the concentration for half-maximal inhibition (IC50) was ≤ 100 nM.

On to `O=C(O)/C=C/c1ccc(/C(=C(\c2ccccc2)C2CCC2)c2ccc3c(c2)CNC3=O)cc1` [Example 4, (E)-3-(4-((E)-2-Cyclobutyl-1-(1-oxoisoindolin-5-yl)-2-phenylvinyl)phenyl)acrylic acid], for which, on ER-α in MCF-7 cells, the Emax was ≥ 40% and the DC50 was ≤ 100 nM. Also, in the assay with MCF-7 cells, the “MCF7 Viability Assay Max Response” value is reported as “++ (++ = a single % value ≧ 40%)” and the IC50 is ≤ 100 nM.

`O=C(O)/C=C/c1ccc(/C(=C(\c2ccc(F)cc2Cl)C2CCC2)c2ccc3c(c2)CNC3=O)cc1` [Example 5, (E)-3-(4-((E)-2-(2-Chloro-4-fluorophenyl)-2-cyclobutyl-1-(1-oxoisoindolin-5-yl)vinyl)phenyl)acrylic acid]: at ER-α in MCF-7 cells, the Emax is ≥ 40% and the DC50 is ≤ 100 nM. For the same molecule, in the assay with MCF-7 cells, the “MCF7 Viability Assay Max Response” value is “++ (++ = a single % value ≧ 40%)” and the IC50 was ≤ 100 nM.

As for `CC/C(=C(/c1ccc(/C=C/C(=O)O)cc1)c1ccc2[nH]ncc2c1C#N)c1ccc(F)cc1Cl` [Example 6, (E)-3-(4-((E)-2-(2-Chloro-4-fluorophenyl)-1-(4-cyano-1H-indazol-5-yl)but-1-en-1-yl)phenyl)acrylic acid], at ER-α in MCF-7 cells, the Emax is ≥ 40% and the DC50 is ≤ 100 nM. In addition, in the assay with MCF-7 cells, the “MCF7 Viability Assay Max Response” value is “++ (++ = a single % value ≧ 40%)” and the IC50 is ≤ 100 nM.

Consider `CC/C(=C(/c1ccc(/C=C/C(=O)O)cc1)c1ccc2[nH]nc(F)c2c1F)c1ccccc1` [Example 7, (E)-3-(4-((E)-1-(3,4-Difluoro-1H-indazol-5-yl)-2-phenylbut-1-en-1-yl)phenyl)acrylic acid], for which, on ER-α in MCF-7 cells, the Emax was ≥ 40% and the DC50 is ≤ 100 nM. In the assay with MCF-7 cells, the “MCF7 Viability Assay Max Response” value is listed as “++ (++ = a single % value ≧ 40%)” and the 50% inhibitory concentration (IC50) is ≤ 100 nM.

With `CC/C(=C(/c1ccc(/C=C/C(=O)O)cc1)c1ccc2[nH]ncc2c1OC)c1ccccc1` [Example 8, (E)-3-(4-((E)-1-(4-Methoxy-1H-indazol-5-yl)-2-phenylbut-1-en-1-yl)phenyl)acrylic acid], at ER-α in MCF-7 cells, the Emax is ≥ 40% and the DC50 is ≤ 100 nM. Further, in the assay with MCF-7 cells, the “MCF7 Viability Assay Max Response” value is “++ (++ = a single % value ≧ 40%)” and the IC50 was ≤ 100 nM.

In the case of `COc1c(/C(=C(/c2ccccc2)C2CCC2)c2ccc(/C=C/C(=O)O)cc2)ccc2[nH]ncc12` [Example 9, (E)-3-(4-((E)-2-Cyclobutyl-1-(4-methoxy-1H-indazol-5-yl)-2-phenylvinyl)phenyl)acrylic acid], at ER-α in MCF-7 cells, the Emax is ≥ 40% and the DC50 is ≤ 100 nM. Besides, in the assay on MCF-7 cells, the “MCF7 Viability Assay Max Response” value was “++ (++ = a single % value ≧ 40%)” and the IC50 was ≤ 100 nM.

As to `N#Cc1c(/C(=C(/c2ccccc2F)C2CCC2)c2ccc(/C=C/C(=O)O)cc2)ccc2[nH]ncc12` [Example 10, (E)-3-(4-((E)-1-(4-Cyano-1H-indazol-5-yl)-2-cyclobutyl-2-(2-fluorophenyl)vinyl)phenyl)acrylic acid], at ER-α in MCF-7 cells, the Emax was ≥ 40% and the DC50 was ≤ 100 nM. In addition, in the assay on MCF-7 cells, the “MCF7 Viability Assay Max Response” value is “++ (++ = a single % value ≧ 40%)” and the IC50 is ≤ 100 nM.

With `Cc1ccccc1/C(=C(\c1ccc(/C=C/C(=O)O)cc1)c1ccc2[nH]ncc2c1C#N)C1CCC1` [Example 11, (E)-3-(4-((E)-1-(4-Cyano-1H-indazol-5-yl)-2-cyclobutyl-2-(o-tolyl)vinyl)phenyl)acrylic acid], on ER-α in MCF-7 cells, the Emax is ≥ 40% and the DC50 is ≤ 100 nM. Further, in the assay with MCF-7 cells, the “MCF7 Viability Assay Max Response” value is “++ (++ = a single % value ≧ 40%)” and the half-inhibitory concentration (IC50) was ≤ 100 nM.

Regarding `N#Cc1c(/C(=C(/c2ccccc2)C2CCC2)c2ccc(/C=C/C(=O)O)cc2)ccc2[nH]nc(F)c12` [Example 12, (E)-3-(4-((E)-1-(4-Cyano-3-fluoro-1H-indazol-5-yl)-2-cyclobutyl-2-phenylvinyl)phenyl)acrylic acid], at ER-α in MCF-7 cells, the Emax was ≥ 40% and the DC50 was ≤ 100 nM. For the same molecule, in the assay on MCF-7 cells, the “MCF7 Viability Assay Max Response” value is listed as “++ (++ = a single % value ≧ 40%)” and the half-maximal inhibitory concentration (IC50) was ≤ 100 nM.

With `N#Cc1c(/C(=C(/c2ccccc2)C2CC2)c2ccc(/C=C/C(=O)O)cc2)ccc2[nH]ncc12` [Example 13, (E)-3-(4-((E)-1-(4-Cyano-1H-indazol-5-yl)-2-cyclopropyl-2-phenylvinyl)phenyl)acrylic acid], on ER-α in MCF-7 cells, the Emax is ≥ 40% and the DC50 is ≤ 100 nM. Moreover, in the assay with MCF-7 cells, the “MCF7 Viability Assay Max Response” value is listed as “++ (++ = a single % value ≧ 40%)” and the IC50 is ≤ 100 nM.

On to `N#Cc1c(/C(=C(/c2ccccc2)C2CC2)c2ccc(/C=C/C(=O)O)cc2)ccc2[nH]nc(F)c12` [Example 14, (E)-3-(4-((E)-1-(4-Cyano-3-fluoro-1H-indazol-5-yl)-2-cyclopropyl-2-phenylvinyl)phenyl)acrylic acid], for which, at ER-α in MCF-7 cells, the Emax is ≥ 40% and the DC50 is ≤ 100 nM. Besides, in the assay with MCF-7 cells, the “MCF7 Viability Assay Max Response” value is “++ (++ = a single % value ≧ 40%)” and the IC50 is ≤ 100 nM.

With `CC(C)/C(=C(/c1ccc(/C=C/C(=O)O)cc1)c1ccc2[nH]nc(F)c2c1)c1ccccc1` [Example 15, (E)-3-(4-((E)-1-(3-Fluoro-1H-indazol-5-yl)-3-methyl-2-phenylbut-1-en-1-yl)phenyl)acrylic acid], on ER-α in MCF-7 cells, the Emax was ≥ 40% and the DC50 is ≤ 100 nM. In the assay with MCF-7 cells, the “MCF7 Viability Assay Max Response” value is given as “++ (++ = a single % value ≧ 40%)” and the 50% inhibitory concentration (IC50) was ≤ 100 nM.

In the case of `O=C(O)/C=C/c1ccc(/C(=C(\c2ccccc2)C2CCC2)c2ccc3[nH]nnc3c2)cc1` [Example 17, (E)-3-(4-((E)-1-(1H-Benzo[d][1,2,3]triazol-5-yl)-2-cyclobutyl-2-phenylvinyl)phenyl)acrylic acid], on ER-α in MCF-7 cells, the Emax is ≥ 40% and the DC50 is ≤ 100 nM. In the assay on MCF-7 cells, the “MCF7 Viability Assay Max Response” value is “++ (++ = a single % value ≧ 40%)” and the IC50 is ≤ 100 nM.

By IC50 is commonly meant the concentration that inhibits the measured activity by half. A low value points to higher potency.
